Series [1] has as its target recombinant CSF1R kinase (Homo sapiens (Human), UniProt P07333). Kind of series: CSF1R kinase activity ELISA assay. Format: biochemical. The settings on record: poly(Glu, Tyr)4:1 substrate, ATP 5 μM, read-out: IC50, inhibition of CSF1R kinase activity. A general note: An ELISA detects its analyte on a solid surface through an enzyme-linked reagent.
The subject of series [2] is phosphorylated CSF1R (p-CSF1R) in BMDM. Description: Western blot of CSF1-stimulated CSF1R phosphorylation in BMDM. Format: cell-based, mouse. As for the experimental part: Bone marrow-derived macrophages, after induction by CSF1 for 5 to 7 days, were centrifuged to remove the previous medium. 2 mL of a serum-free medium was added. […] CSF1 factor was added at a final concentration of 50 ng/mL for stimulation for 15 minutes. The culture medium was discarded, and cells were washed three times with pre-cooled PBS. Then, the cells were lysed by adding 1×SDS gel loading buffer. The cell lysates were heated in a boiling water bath for 15 min, and then stored at −20° C.
A protein sample as described above was subjected to SDS-PAGE electrophoresis. Then, the protein was transferred to a nitrocellulose membrane using a semi-dry electrotransfer system. The nitrocellulose membrane was placed in a blocking solution (5% skim milk in TBS-T) and incubated for 2 h at room temperature. Then, the membrane was allowed to react with a primary antibody overnight at 4° C. After the membrane was washed with TBS-T for three times with 15 min each time, the membrane was allowed to react in a secondary antibody dilution at room temperature for 1-2 h. […]
The inhibitory effect of Compound I on CSF1R and its signaling pathway in mouse primary macrophages was detected by immunoblotting assays. Each experiment was independently repeated three times and all experimental results were quantified. […]

Series [3] deals with macrophage marker F4/80 in U87MG tumor tissues. Kind of series: Immunohistochemistry of macrophage marker F4/80 in U87MG tumor tissues. Format: in vivo, nude mice. Conditions: 40 mg/kg, compared with blank preparation group. As to the method:
(§1) At the end of the in vivo experiments, U87MG and HT-29 xenografts in nude mice were removed and fixed with […] to prepare paraffin sections.
(§2) Expression of individual proteins was assessed using multiplicative quick score method (MQS). This evaluation method takes into account both the staining intensity and the staining range. The method estimates the proportion of positive cells and gives a range score from 1 to 6 (1=1%-4%; 2=5%-19%; 3=20%-39%; 4=40%-59%; 5=60%-79%; 6=80%-100%). The average intensity score of positive stained cells was 0 to 3 (0=no staining; 1=weak staining; 2=moderate staining; 3=strong staining). The total score a (minimum 0 and maximum 18) is then calculated by multiplying the range score by the intensity score.
For detecting the changes in the macrophage marker F4/80 and M2-type macrophage marker CD206 in the U87MG tumor tissues, quantitative analysis (solvent: n=6, blank preparation: n=6, Compound I (10 mg/kg): n=6, Compound I (20 mg/kg): n=6, Compound I (40 mg/kg): n=6, Axitinib: n=4) was performed on all sections and the experimental data were analyzed for significant differences using the t-test. * denotes p<0.05 as compared with the blank preparation group, ** denotes p<0.01 as compared with the blank preparation group, and denotes p<0.001 as compared with the blank preparation group.

Series [4] relates to solid tumors, such as brain gliomas. Description: Clinical trial, preliminary efficacy. The series is classed as in vivo. Conditions: particularly high-grade brain gliomas, data not shown.
Series [5] relates to human glioma U87MG subcutaneous xenografts. Description: Human glioma U87MG subcutaneous xenografts in nude mice. The series is classed as in vivo, BALB/c nude mice. Conditions: for Body Weight (g) D 21 / RTV (mean ± SD) / TV (mm^3, mean ± SD) D 21: D 21; for T/C (%): Day 21. As to the method: BALB/c nude female mice of 3-4 weeks old were used, and were provided by […] […] OF MATERIA MEDICA, CHINESE ACADEMY OF SCIENCES.
Human glioma U87MG cells were subcutaneously inoculated into the right axillary fossa of a nude mouse (5×10^6 cells/mouse). After a xenograft was formed, the tumor was transferred to a nude mouse for 1 passage.
Tumor tissues at the vigorous growth stage were removed and cut into pieces of approximately 1.5 mm^3. The tumor fragments were inoculated subcutaneously into the right axillary fossa of nude mice under aseptic conditions. The diameters of the subcutaneous xenografts in nude mice were measured with a vernier caliper. The animals were randomly grouped after the xenografts reached an average volume of about 90 mm^3. Compound I was administered orally at doses of 40 mg/kg, 20 mg/kg and 10 mg/kg twice a day for 21 consecutive days. An equal volume of a blank preparation was administered orally twice a day for 21 consecutive days. The positive control drug Axitinib was administered orally at a dose of 40 mg/kg group twice a day for 21 consecutive days. An equal volume of water for injection was administered to the animals in the solvent group. Throughout the experiment, the diameters of the xenografts were measured twice a week and the mice were weighed at the same time. The tumor volume (TV) was calculated as TV=½×a×b^2, where “a” and “b” denote the length and width of a tumor, respectively. The relative tumor volume (RTV) was calculated from the measurement results with the calculation formula RTV=Vt/V0, in which V0 is the tumor volume measured upon administration after grouping (i.e., D0) and Vt is the tumor volume from each measurement. The evaluation index of anti-tumor activity is the relative tumor proliferation rate T/C (%), which is calculated as T/C (%)=(TRTV/CRTV)×100%, in which TRTV denotes the RTV from the treatment group and CRTV denotes the RTV from solvent group.
(In xenograft studies the graft and the host belong to different species.)

Series [6] relates to M2-type macrophage marker CD206 in HT-29 tumor tissues. Kind of series: Immunohistochemistry of M2-type macrophage marker CD206 in HT-29 tumor tissues. The settings on record: Compound I 5, 10, 20 mg/kg; Axitinib 40 mg/kg. The series is classed as in vivo, nude mice. As to the method: as §1, §2
For detecting the changes in the macrophage marker F4/80 and M2-type macrophage marker CD206 in the HT-29 tumor tissues, quantitative analysis (solvent: n=12, blank preparation: n=6, Compound I (5 mg/kg): n=6, Compound I (10 mg/kg): n=6, Compound I (20 mg/kg): n=6, Axitinib: n=6) was performed on all sections and the experimental data were analyzed for significant differences using the t-test. * denotes p<0.05 as compared with the blank preparation group, ** denotes p<0.01 as compared with the blank preparation group, and denotes p<0.001 as compared with the blank preparation group.

Consider one compound from patent publication US20230382871A1, “CSF1R KINASE INHIBITOR AND USE THEREOF” (SHANGHAI INSTITUTE OF MATERIA MEDICA, CHINESE ACADEMY OF …, priority 2020, published 2023).

Sequence of recombinant CSF1R kinase (P07333 20-972): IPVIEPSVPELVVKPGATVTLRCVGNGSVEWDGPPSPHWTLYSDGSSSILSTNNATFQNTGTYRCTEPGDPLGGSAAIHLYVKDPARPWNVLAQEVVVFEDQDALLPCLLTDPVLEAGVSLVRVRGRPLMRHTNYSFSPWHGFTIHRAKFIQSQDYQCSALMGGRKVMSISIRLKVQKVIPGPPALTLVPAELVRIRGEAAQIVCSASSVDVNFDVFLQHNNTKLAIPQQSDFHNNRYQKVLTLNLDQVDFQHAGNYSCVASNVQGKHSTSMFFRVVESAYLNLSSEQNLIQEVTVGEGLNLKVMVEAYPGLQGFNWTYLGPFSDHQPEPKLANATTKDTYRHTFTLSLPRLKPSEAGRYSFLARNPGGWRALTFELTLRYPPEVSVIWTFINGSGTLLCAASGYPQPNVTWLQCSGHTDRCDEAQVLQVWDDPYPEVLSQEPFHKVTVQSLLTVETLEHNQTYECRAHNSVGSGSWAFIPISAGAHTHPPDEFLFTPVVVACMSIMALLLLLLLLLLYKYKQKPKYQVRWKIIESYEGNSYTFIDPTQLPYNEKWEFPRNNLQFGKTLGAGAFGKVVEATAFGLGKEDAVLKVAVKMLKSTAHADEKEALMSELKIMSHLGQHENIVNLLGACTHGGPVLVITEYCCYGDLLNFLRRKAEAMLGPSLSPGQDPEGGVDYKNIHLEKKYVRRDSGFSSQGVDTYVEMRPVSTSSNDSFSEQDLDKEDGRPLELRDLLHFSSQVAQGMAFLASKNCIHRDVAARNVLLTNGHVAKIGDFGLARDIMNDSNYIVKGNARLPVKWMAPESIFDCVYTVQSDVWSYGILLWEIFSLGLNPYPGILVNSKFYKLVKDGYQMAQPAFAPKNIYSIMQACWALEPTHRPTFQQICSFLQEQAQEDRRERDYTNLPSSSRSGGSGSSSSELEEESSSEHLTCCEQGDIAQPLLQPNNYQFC

For the compound `Cc1cc(NC(=O)c2cccc3cc(-c4cccc5[nH]nc(N)c45)ccc23)ccc1F` [Compound I], the IC50 in series [1] was 19.3 ± 3.4 nM. This compound showed an inhibition at 0.1 µM in series [2] (Mus musculus, 100 nM, 2 h, CSF1 50 ng/mL 15 min) of 57.3%. In series [2] (immunoblotting), the “CSF1 stimulated phosphorylation levels of CSF1R and AKT” value was “inhibited in a dose-dependent manner”. The “expression of F4/80 in macrophages, U87MG tumor tissue” value in series [3] is given as “significantly reduced”. For the same compound, the “preliminary efficacy in clinical trial” value in series [4] is “good therapeutic efficacy”. In addition, in series [5] (10 mg/kg bid × 21 po), the “Body Weight (g) D 0” value turned out to be 15.7 g; the “TV (mm^3, mean ± SD) D 0” value worked out at 87 ± 17 mm^3; the “Body Weight (g) D 21” value came out at 17.3 g; the “RTV (mean ± SD)” value is given as 3.57 ± 1.06. In series [5] (10 mg/kg bid × 21 po), the “TV (mm^3, mean ± SD) D 21” value worked out at 302 ± 72 mm^3 and the “T/C (%)” value was 11.91%. Also, in series [5] (20 mg/kg bid × 21 po), the “Body Weight (g) D 0” value came out at 16.7 g; the “TV (mm^3, mean ± SD) D 0” value is listed as 87 ± 17 mm^3; the “Body Weight (g) D 21” value came out at 16.9 g; the “RTV (mean ± SD)” value turned out to be 2.44 ± 1.58. Also, in series [5] (20 mg/kg bid × 21 po), the “TV (mm^3, mean ± SD) D 21” value is reported as 200 ± 100 mm^3 and the “T/C (%)” value turned out to be 8.14%. For the same compound, in series [5] (40 mg/kg bid × 21 po), the “Body Weight (g) D 0” value stood at 17.0 g; the “TV (mm^3, mean ± SD) D 0” value is given as 87 ± 15 mm^3; the “Body Weight (g) D 21” value is 17.6 g; the “RTV (mean ± SD)” value was found to be 2.93 ± 0.50. In addition, in series [5] (40 mg/kg bid × 21 po), the “TV (mm^3, mean ± SD) D 21” value came out at 251 ± 37 mm^3 and the “T/C (%)” value is recorded as 9.77%. The “expression of CD206, HT-29 tumor tissue” value in series [6] is “inhibited the expression of F4/80 and CD206 in a dose-dependent manner”.

A word on the IC50: it is the concentration that inhibits the measured activity by half. Broadly, the inhibition is the percentage by which the read-out fell short of the control.
